Ten compounds from patent US20150148377A1, “Quinoline Derivatives” (NOVARTIS AG, priority 2011, published 2015) can be followed below.

Broadly, the IC50 is the concentration at which inhibition is half-maximal.

The target in the assay is T1, PI3K alpha (Homo sapiens, UniProt P42336).
T1 construct: His tag (C); made in house; host or cells: baculovirus; Tn5 (Trichoplusia ni) or TiniPro insect cells
T1 sequence (P42336 with tags, fused parts or gaps limits assumed): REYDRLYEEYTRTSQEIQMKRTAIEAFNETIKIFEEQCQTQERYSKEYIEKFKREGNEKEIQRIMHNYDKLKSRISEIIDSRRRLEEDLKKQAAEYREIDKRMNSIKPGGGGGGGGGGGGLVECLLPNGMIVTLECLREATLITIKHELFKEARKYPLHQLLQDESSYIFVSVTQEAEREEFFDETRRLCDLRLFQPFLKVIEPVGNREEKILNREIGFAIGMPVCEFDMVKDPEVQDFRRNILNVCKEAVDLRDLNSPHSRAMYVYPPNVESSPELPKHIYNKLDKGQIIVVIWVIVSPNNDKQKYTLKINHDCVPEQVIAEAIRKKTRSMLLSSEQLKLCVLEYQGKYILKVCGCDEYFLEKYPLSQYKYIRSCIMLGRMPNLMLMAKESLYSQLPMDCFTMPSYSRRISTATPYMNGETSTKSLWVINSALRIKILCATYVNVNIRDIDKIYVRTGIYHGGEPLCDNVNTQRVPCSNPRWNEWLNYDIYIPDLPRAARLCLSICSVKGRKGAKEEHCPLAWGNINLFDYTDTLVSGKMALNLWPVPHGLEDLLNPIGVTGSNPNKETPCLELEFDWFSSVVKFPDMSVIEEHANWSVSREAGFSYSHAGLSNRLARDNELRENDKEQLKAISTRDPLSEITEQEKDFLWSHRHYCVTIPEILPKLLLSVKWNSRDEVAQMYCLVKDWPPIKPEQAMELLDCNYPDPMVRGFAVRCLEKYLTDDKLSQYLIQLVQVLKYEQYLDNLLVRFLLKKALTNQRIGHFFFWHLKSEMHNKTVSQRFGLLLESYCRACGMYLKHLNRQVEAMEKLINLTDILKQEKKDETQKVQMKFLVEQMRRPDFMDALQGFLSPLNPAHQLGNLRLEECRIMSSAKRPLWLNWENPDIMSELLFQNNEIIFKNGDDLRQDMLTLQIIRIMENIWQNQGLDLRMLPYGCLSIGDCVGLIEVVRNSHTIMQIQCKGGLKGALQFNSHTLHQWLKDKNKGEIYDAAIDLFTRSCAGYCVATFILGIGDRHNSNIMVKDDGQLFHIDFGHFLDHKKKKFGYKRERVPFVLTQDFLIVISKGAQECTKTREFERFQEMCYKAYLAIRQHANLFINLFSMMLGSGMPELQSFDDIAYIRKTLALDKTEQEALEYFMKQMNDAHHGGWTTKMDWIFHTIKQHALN
Briefly: Enzymatic PI3K alpha isoform inhibition (lipid kinase activity, Kinase-Glo). The assay is classed as biochemical. As to conditions: enzymatic assay. In short, it runs like this:
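Lipid kinase reaction with 10 nM PI3Kα, 1 μM ATP and 10 μg/mL phosphatidylinositol in pH 7.5 Tris with MgCl2, NaCl, CHAPS and DTT, run 60 min at room temperature. Remaining ATP read by Kinase-Glo luminescence. IC50 from 8-point 4-parameter logistic fits.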
Regarding `COc1ncc(-c2ccnc3ccc(O[C@H]4CCN(C(=O)C5CCS(=O)(=O)CC5)C4)cc23)cc1C` [Example A15, (1,1-Dioxo-hexahydro-1lambda*6*-thiopyran-4-yl)-{(S)-3-[4-(6-methoxy-5-methyl-pyridin-3-yl)-quinolin-6-yloxy]-pyrrolidin-1-yl}-methanone], the IC50 was 186 nM.

Consider `COc1ncc(-c2ccnc3ccc(O[C@H]4CCN(C(=O)C5CCS(=O)(=O)CC5)C4)cc23)cc1Cl` [Example A1, {(S)-3-[4-(5-Chloro-6-methoxy-pyridin-3-yl)-quinolin-6-yloxy]-pyrrolidin-1-yl}-(1,1-dioxo-hexahydro-1lambda*6*-thiopyran-4-yl)-methanone], for which the IC50 was 77 nM.

As for `Cc1cc(-c2ccnc3cc(F)c(O[C@H]4CCN(C(=O)C5CCOCC5)C4)cc23)cnc1S(C)(=O)=O` [Example C2, {(S)-3-[7-Fluoro-4-(6-methanesulfonyl-5-methyl-pyridin-3-yl)-quinolin-6-yloxy]-pyrrolidin-1-yl}-(tetrahydro-pyran-4-yl)-methanone], the IC50 is 5680 nM.

`COc1ncc(-c2ccnc3ccc(O[C@H]4CCN(C(=O)C5CCS(=O)(=O)CC5)C4)cc23)cc1C(F)F` [Example A6, {(S)-3-[4-(5-Difluoromethyl-6-methoxy-pyridin-3-yl)-quinolin-6-yloxy]-pyrrolidin-1-yl}-(1,1-dioxo-hexahydro-1lambda*6*-thiopyran-4-yl)-methanone]: the IC50 was found to be 53 nM. Next, `COc1ncc(-c2ccnc3ccc(O[C@H]4CCN(C(=O)[C@@H]5CCN(C(C)=O)C5)C4)cc23)cc1C(F)F` [Example A24, 1-((R)-3-{(S)-3-[4-(5-Difluoromethyl-6-methoxy-pyridin-3-yl)-quinolin-6-yloxy]-pyrrolidine-1-carbonyl}-pyrrolidin-1-yl)-ethanone]: 67 nM; `COc1ncc(-c2ccnc3cc(F)c(O[C@H]4CCN(C(=O)C5CCS(=O)(=O)CC5)C4)cc23)cc1C` [Example C1, (1,1-Dioxo-hexahydro-1lambda*6*-thiopyran-4-yl)-{(S)-3-[7-fluoro-4-(6-methoxy-5-methyl-pyridin-3-yl)-quinolin-6-yloxy]-pyrrolidin-1-yl}-methanone]: 3110 nM; `COc1ncc(-c2ccnc3ccc(O[C@H]4CCN(C(=O)[C@@H]5CCN(C(C)=O)C5)C4)cc23)cc1C` [Example A10, 1-((R)-3-{(S)-3-[4-(6-Methoxy-5-methyl-pyridin-3-yl)-quinolin-6-yloxy]-pyrrolidine-1-carbonyl}-pyrrolidin-1-yl)-ethanone]: 1360 nM. `COc1ncc(-c2ccnc3ccc(O[C@H]4CCN(C(=O)C5CCS(=O)(=O)CC5)C4)c(C)c23)cc1C` [Example B3, (1,1-Dioxo-hexahydro-1lambda*6*-thiopyran-4-yl)-{(S)-3-[4-(6-methoxy-5-methyl-pyridin-3-yl)-5-methyl-quinolin-6-yloxy]-pyrrolidin-1-yl}-methanone]: the IC50 was determined as 498 nM. Next, `CCC(=O)N1CC[C@H](Oc2ccc3nccc(-c4cnc(S(C)(=O)=O)c(C)c4)c3c2)C1` [Example A25, 1-{(S)-3-[4-(6-Methanesulfonyl-5-methyl-pyridin-3-yl)-quinolin-6-yloxy]-pyrrolidin-1-yl}-propan-1-one]: 821 nM; `COc1ncc(-c2ccnc3ccc(O[C@H]4CCN(C(=O)[C@@H]5CCN(C(C)=O)C5)C4)c(C)c23)cc1C(F)F` [Example B1, 1-((R)-3-{(S)-3-[4-(5-Difluoromethyl-6-methoxy-pyridin-3-yl)-5-methylquinolin-6-yloxy]-pyrrolidine-1-carbonyl}-pyrrolidin-1-yl)-ethanone]: 63 nM.
